{
  "source": "patent US20250302795A1",
  "about": "“SMALL MOLECULE COMPOUNDS WITH NEGATIVE REGULATORY EFFECTS ON Nrf2 SIGNALING [sequence] AND THEIR POTENTIAL APPLICATIONS” (Beijing Hebabiz Biotechnology Co., Inc., priority 2022, published 2025)",
  "type_in_all_cases": "in vivo, rat",
  "key": {"[1]": {"test": "Body weight of rats, high-fat diet non-alcoholic steatohepatitis model", "conditions": "positive control group, in g (unit assumed)", "protocol": "(§1) The normal control group was fed a standard diet for twelve weeks while the other groups were fed a high-fat diet consisting of 88% basal diet+10% lard+2% cholesterol for twelve weeks. After establishing the model, the drug groups received their respective treatments at a dosage of 10 ml/kg while the normal and model groups received an equal volume of 0.5% CMC-Na solution. The rats were provided with ad libitum access to water and food, while the animal chamber was maintained under controlled conditions of quietness, natural lighting, a temperature of 25±0.5° C., and a humidity level of 55±5%. The rats' body weights were measured once per week and recorded.\nThe rats were weighed weekly to monitor the fluctuations in body weight within each experimental group."}, "[2]": {"test_system": "rats with non-alcoholic steatohepatitis induced by high-fat diet", "test": "Liver indices, non-alcoholic steatohepatitis model induced by high-fat diet", "conditions": "high-fat diet model; positive control group", "protocol": "as §1\n(3) Liver indices was determined by dividing the wet weight of the liver by the body weight of rats and multiplying by 100%, after liver tissue was isolated, washed with normal saline, dried using filter paper, and weighed following blood sampling from the abdominal aorta. (4) HE staining and oil red staining were performed on liver tissue samples obtained from the abdominal aorta of rats. The tissue was fixed in 10% neutral formalin, followed by embedding, slicing, dewaxing, staining, transparency treatment, and sealing using routine procedures. Microscopic examination was conducted to observe the pathological changes in rat liver tissues across different groups. Additionally, the NASH-CRN scoring system was employed to assess NAS scores. (5) Detection of Proteins Associated with Non-Alcoholic Steatohepatitis"}, "[3]": {"test": "Body weight of rats, high-fat diet + CCl4 non-alcoholic steatohepatitis model", "conditions": "positive control group, in g (unit assumed)", "protocol": "(§2) The normal control group were fed a standard diet while the other groups were exclusively fed a high-fat diet consisting of 88% basal diet +10% lard +2% cholesterol for the initial six weeks. Starting from the seventh week, they received subcutaneous injections of a 30% CCl4 olive oil solution at a dosage of 0.2 ml/100 g behind their back twice per week for a total of four times. Once the model was successfully replicated, the corresponding drugs were administered orally (10 ml/kg) in each treatment group, and both the normal control group and the model group received equal volumes of a 0.5% CMC-Na solution once daily for ten consecutive weeks. Throughout the experimental period, the rats were provided with ad libitum access to food and water, while the animal chamber was maintained under controlled conditions of quietness, natural lighting, a temperature of 25±0.5° C., and a humidity level of 55±5%. The rats' body weights were measured once per week and recorded.\nThe weight changes of rats in each group were compared by conducting weekly weigh-ins after the experiment."}, "[4]": {"test_system": "rats with nonalcoholic steatohepatitis induced by a high-fat diet and CCl4", "test": "Liver indices, non-alcoholic steatohepatitis model induced by high-fat diet and CCl4", "conditions": "positive control group", "protocol": "as §2\nAfter blood sampling from the abdominal aorta of rats, the liver tissue was isolated, rinsed with normal saline solution, dried using filter paper, weighed accurately, and subsequently calculated the Liver indices: Liver indices=wet liver weight/body weight×100%."}, "[5]": {"test_system": "rats with nonalcoholic steatohepatitis induced by a high-fat diet and CCl4", "test": "Serum biochemical indices, high-fat diet and CCl4 model", "conditions": "end of tenth week of administration, positive control group", "protocol": "as §2, with “Starting” for “The normal control group were fed a standard diet while the other groups were exclusively fed a high-fat diet consisting of 88% basal diet +10% lard +2% cholesterol for the initial six weeks. Starting”\n(§3) At the end of the tenth week of administration, all rats underwent a 16-hour fasting period following their final administration and were intraperitoneally injected with a 20% ulinastatin solution (10 ml/kg) for anesthesia. Subsequently, blood samples were collected from the abdominal aorta and allowed to stand for one hour, and then centrifuged at 4° C. for fifteen minutes at a speed of 3000 r/min. Finally, the upper serum was stored at −80° C. Following the instructions provided with the biochemical index detection kit, levels of HDL-C, LDL-C, NEFA, AST, ALT, UA, TC, TG, PCIII, IV-C LN and HA in rat serum were determined.\nAccording to the kit instructions, the concentration of fasting plasma glucose (FPG) in serum was determined using colorimetry, while the concentration of fasting insulin (FINS) in serum was measured through radioimmunoassay."}, "[6]": {"test_system": "rats with nonalcoholic steatohepatitis induced by a high-fat diet and CCl4", "test": "Four indices of serum hepatic fibrosis, high-fat diet and CCl4 model", "conditions": "positive control group", "protocol": "as §2, with “Starting” for “The normal control group were fed a standard diet while the other groups were exclusively fed a high-fat diet consisting of 88% basal diet +10% lard +2% cholesterol for the initial six weeks. Starting”\nas §3"}},
  "data": [
    {"smiles": "CC[C@H]1[C@@H](O)[C@@H]2[C@H](CC[C@]3(C)[C@@H]([C@H](C)CCC(=O)O)CC[C@@H]23)[C@@]2(C)CC[C@@H](O)C[C@@H]12", "note": "[Ocaliva, Obercholic acid]", "values": [
      {"measurement": "body weight", "setting": "[1]; week 0 (pre-administration)", "result": "197.61 ± 4.50"},
      {"measurement": "body weight", "setting": "[1]; week 1 (pre-administration)", "result": "257.27 ± 10.59"},
      {"measurement": "body weight", "setting": "[1]; week 2 (pre-administration)", "result": "318.89 ± 11.61"},
      {"measurement": "body weight", "setting": "[1]; week 3 (pre-administration)", "result": "362.58 ± 18.50"},
      {"measurement": "body weight", "setting": "[1]; week 4 (pre-administration)", "result": "403.03 ± 23.75"},
      {"measurement": "body weight", "setting": "[1]; week 5 (pre-administration)", "result": "439.43 ± 29.45"},
      {"measurement": "body weight", "setting": "[1]; week 6 (pre-administration)", "result": "474.15 ± 35.23"},
      {"measurement": "body weight", "setting": "[1]; week 7 (pre-administration)", "result": "492.08 ± 37.59"},
      {"measurement": "body weight", "setting": "[1]; week 8 (pre-administration)", "result": "520.77 ± 41.63"},
      {"measurement": "body weight", "setting": "[1]; week 9 (pre-administration)", "result": "548.10 ± 47.45"},
      {"measurement": "body weight", "setting": "[1]; week 10 (pre-administration)", "result": "552.73 ± 51.34"},
      {"measurement": "body weight", "setting": "[1]; week 11 (pre-administration)", "result": "552.52 ± 56.26"},
      {"measurement": "body weight", "setting": "[1]; week 12 (pre-administration)", "result": "570.97 ± 53.36"},
      {"measurement": "body weight", "setting": "[1]; week 13", "result": "552.25 ± 68.34"},
      {"measurement": "body weight", "setting": "[1]; week 14", "result": "551.61 ± 63.47"},
      {"measurement": "body weight", "setting": "[1]; week 15", "result": "559.94 ± 61.90"},
      {"measurement": "body weight", "setting": "[1]; week 16", "result": "572.35 ± 60.86"},
      {"measurement": "body weight", "setting": "[1]; week 17", "result": "573.51 ± 72.23"},
      {"measurement": "body weight", "setting": "[1]; week 18", "result": "599.13 ± 55.71"},
      {"measurement": "body weight", "setting": "[1]; week 19", "result": "615.97 ± 56.23"},
      {"measurement": "body weight", "setting": "[1]; week 20", "result": "601.19 ± 60.01"},
      {"measurement": "Liver Indices", "setting": "[2]", "result": "2.95 ± 0.68", "unit": "%"},
      {"measurement": "body weight", "setting": "[3]; week 1", "result": "192.12 ± 5.16"},
      {"measurement": "body weight", "setting": "[3]; week 2", "result": "251.85 ± 11.78"},
      {"measurement": "body weight", "setting": "[3]; week 3", "result": "316.12 ± 16.31"},
      {"measurement": "body weight", "setting": "[3]; week 4", "result": "359.50 ± 15.40"},
      {"measurement": "body weight", "setting": "[3]; week 5", "result": "389.95 ± 30.78"},
      {"measurement": "body weight", "setting": "[3]; week 6", "result": "432.14 ± 23.79"},
      {"measurement": "body weight", "setting": "[3]; week 7", "result": "462.23 ± 28.00"},
      {"measurement": "body weight", "setting": "[3]; week 8", "result": "487.97 ± 30.51"},
      {"measurement": "body weight", "setting": "[3]; week 9", "result": "487.63 ± 39.07"},
      {"measurement": "body weight", "setting": "[3]; week 10", "result": "505.41 ± 41.23"},
      {"measurement": "body weight", "setting": "[3]; week 11", "result": "493.66 ± 55.42"},
      {"measurement": "body weight", "setting": "[3]; week 12", "result": "509.99 ± 49.38"},
      {"measurement": "body weight", "setting": "[3]; week 13", "result": "532.39 ± 48.08"},
      {"measurement": "body weight", "setting": "[3]; week 14", "result": "532.75 ± 52.06"},
      {"measurement": "body weight", "setting": "[3]; week 15", "result": "498.86 ± 46.37"},
      {"measurement": "body weight", "setting": "[3]; week 16", "result": "493.95 ± 43.25"},
      {"measurement": "body weight", "setting": "[3]; week 17", "result": "515.43 ± 41.21"},
      {"measurement": "body weight", "setting": "[3]; week 18", "result": "525.15 ± 42.35"},
      {"measurement": "Liver Indices", "setting": "[4]", "result": "3.57 ± 0.31", "unit": "%"},
      {"measurement": "HOMA-IR", "setting": "[5]; FPG x FINS/22.5", "result": 4.90},
      {"measurement": "ALT", "setting": "[5]; serum", "result": 54.91, "unit": "U/L"},
      {"measurement": "AST", "setting": "[5]; serum", "result": 62.32, "unit": "U/L"},
      {"measurement": "HDL-C", "setting": "[5]; serum", "result": 1.30, "unit": "mmol/L"},
      {"measurement": "LDL-C", "setting": "[5]; serum", "result": 1.29, "unit": "mmol/L"},
      {"measurement": "NEFA", "setting": "[5]; serum", "result": 0.69, "unit": "mmol/L"},
      {"measurement": "TC", "setting": "[5]; serum", "result": 1.76, "unit": "mmol/L"},
      {"measurement": "TG", "setting": "[5]; serum", "result": 0.50, "unit": "mmol/L"},
      {"measurement": "UA", "setting": "[5]; serum", "result": 106, "unit": "µmol/L"},
      {"measurement": "HA", "setting": "[6]", "result": "50.19 ± 17.94", "unit": "µg/L"},
      {"measurement": "IV-C", "setting": "[6]", "result": "15.40 ± 7.08", "unit": "µg/L"},
      {"measurement": "LN", "setting": "[6]", "result": "118.43 ± 39.88", "unit": "µg/L"},
      {"measurement": "PC-III", "setting": "[6]", "result": "10.82 ± 1.64", "unit": "µg/L"}
    ]}
  ]
}
